From PubChem BioAssay (NCI)
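Following 48 hours of exposure in 96-well plates, responses at five concentrations were used to interpolate endpoints linearly. TGI denotes the concentration required for complete inhibition of growth.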

Assays:
Assay in all cases: growth of human tumour cells (NCI), 48 h
[1] = test system: OVCAR-3 ovarian
[2] = test system: T-47D breast
[3] = test system: SNB-19 CNS
[4] = test system: KM12 colon
[5] = test system: LOX IMVI melanoma
[6] = test system: UACC-257 melanoma
[7] = test system: A549 NSCLC
[8] = test system: SF-268 CNS
[9] = test system: CCRF-CEM leukemia
[10] = test system: RPMI-8226 leukemia
[11] = test system: HL-60(TB) leukemia
[12] = test system: ACHN renal
[13] = test system: SK-OV-3 ovarian
[14] = test system: MDA-MB-435
[15] = test system: SR leukemia
[16] = test system: IGROV1 ovarian
[17] = test system: MOLT-4 leukemia
[18] = test system: A498 renal
[19] = test system: MCF7 breast
[20] = test system: HCT-116 colon
[21] = test system: BT-549 breast
[22] = test system: NCI/ADR-RES ovarian
[23] = test system: SF-295 CNS
[24] = test system: UO-31 renal
[25] = test system: NCI-H522 lung
[26] = test system: RXF 393 renal
[27] = test system: SN12C renal
[28] = test system: K-562 leukemia
[29] = test system: SK-MEL-2 melanoma
[30] = test system: DU-145 prostate
[31] = test system: U251 CNS
[32] = test system: HOP-62 NSCLC
[33] = test system: OVCAR-5 ovarian
[34] = test system: CAKI-1 renal
[35] = test system: EKVX NSCLC
[36] = test system: UACC-62 melanoma
[37] = test system: HS 578T breast
[38] = test system: SW-620 colon
[39] = test system: TK-10 renal
[40] = test system: M14 melanoma
[41] = test system: HT29 colon
[42] = test system: NCI-H226 lung
[43] = test system: COLO 205 colon
[44] = test system: MDA-MB-231 breast
[45] = test system: SK-MEL-28 melanoma
[46] = test system: HCT-15 colon
[47] = test system: OVCAR-4 ovarian
[48] = test system: SNB-75 CNS
[49] = test system: NCI-H23 lung
[50] = test system: HCC-2998 colon
[51] = test system: SK-MEL-5 melanoma
[52] = test system: OVCAR-8 ovarian
[53] = test system: HOP-92 NSCLC
[54] = test system: 786-0 renal
[55] = test system: PC-3 prostate
[56] = test system: NCI-H460 lung

In the case of `Cn1c(=O)c2c(nc3n(Cc4ccccc4)c(=O)c(NCCCBr)cn23)n(C)c1=O`, the TGI [1] was greater than 100 µM, the TGI [2] was greater than 100 µM and the TGI [3] was greater than 100 µM. The TGI [4] was greater than 100 µM, the TGI [5] was greater than 100 µM and the TGI [6] was greater than 100 µM. The TGI [7] was greater than 100 µM, the TGI [8] was greater than 100 µM and the TGI [9] was greater than 100 µM. For the same compound, the TGI [10] was greater than 100 µM, the TGI [11] was greater than 100 µM and the TGI [12] was greater than 100 µM. It also gave a TGI [13] of 97.3 µM, a TGI [14] greater than 100 µM and a TGI [15] greater than 100 µM. The TGI [16] was greater than 100 µM, the TGI [17] was greater than 100 µM and the TGI [18] was greater than 100 µM. It also gave a TGI [19] greater than 100 µM, a TGI [20] greater than 100 µM and a TGI [21] greater than 100 µM. For the same compound, the TGI [22] was greater than 100 µM, the TGI [23] was greater than 100 µM and the TGI [24] was greater than 100 µM. The TGI [25] was greater than 100 µM, the TGI [26] was greater than 100 µM and the TGI [27] was greater than 100 µM. The TGI [28] was greater than 100 µM, the TGI [29] was greater than 100 µM and the TGI [30] was greater than 100 µM. The TGI [31] was greater than 100 µM, the TGI [32] was greater than 100 µM and the TGI [33] was greater than 100 µM. It also gave a TGI [34] greater than 100 µM, a TGI [35] greater than 100 µM and a TGI [36] greater than 100 µM. For the same compound, the TGI [37] was greater than 100 µM, the TGI [38] was greater than 100 µM and the TGI [39] was greater than 100 µM. For the same compound, the TGI [40] was greater than 100 µM, the TGI [41] was greater than 100 µM and the TGI [42] was greater than 100 µM. It also gave a TGI [43] greater than 100 µM, a TGI [44] greater than 100 µM and a TGI [45] greater than 100 µM. It also gave a TGI [46] greater than 100 µM, a TGI [47] greater than 100 µM and a TGI [48] of 97.7 µM. It also gave a TGI [49] greater than 100 µM, a TGI [50] greater than 100 µM and a TGI [51] greater than 100 µM. The TGI [52] was greater than 100 µM, the TGI [53] was 58.5 µM and the TGI [54] was greater than 100 µM. For the same compound, the TGI [55] was greater than 100 µM and the TGI [56] was greater than 100 µM.
